Converted amounts (≈) assume the structure as drawn.
Columns and labels:
E. coli (ATCC 25922) = assay: MIC, broth microdilution; format: cell-based; conditions: 24 h, no pH given
Experimental: (§1) Bacterial strains. S. aureus Newman was kindly provided by Prof Douglas Weibel; E. coli ATCC25922, S. aureus ATCC 33591 and P. aeruginosa ATCC 27853 were kindly donated by Prof. David Andes. E. coli DH5a was purchased from Thermo Fisher. The bacteria above were grown in Mueller Hinton Broth (MHB) media (Criterion, Santa Maria, Calif., USA). M. smegmatis mc^2155 strain was kindly donated by Prof. Adel M. Talaat, and was grown in Middlebrook 7H9 broth (HiMedia, West Chester, Pa., USA).
(§2) Minimal inhibitory concentration (MIC) measurements. The MIC of the different treatments on various bacteria strains was determined using the broth microdilution method. Briefly, 100 μL of the respective broth media containing serial twofold dilutions of each compound was placed into a 96-well tissue culture plate. Each bacterial strain was taken from an exponentially growing culture and diluted to 5×10^6 CFU/mL. 10 μL of such microbial suspension was inoculated in each well of the plate, resulting in a final bacteria concentration of approximately 5×10^5 CFU/mL. The bacteria were cultured at 37° C. for 24 h and their growth were observed by reading the optical density (OD) at 600 nm. The MIC was determined as the treatment concentration at which no microbial growth was observed. Broth containing microbial cells alone was used as a positive control and broth without bacteria inoculation was used as a negative control. Each test was carried out in 3 replicates.

E. coli (DH5 alpha) = assay: MIC, broth microdilution; format: cell-based; conditions: 24 h, no pH given
Experimental: as §1, §2

M. smegmatis (MC^2 155) = assay: MIC, broth microdilution; format: cell-based; conditions: 24 h, no pH given
Experimental: as §1, §2

[1] = system: P. aeruginosa (ATCC 27853); assay: MIC, broth microdilution; format: cell-based; conditions: 24 h, no pH given
Experimental: as §1, §2

[2] = system: S. aureus (MRSA ATCC33591); assay: MIC, broth microdilution; format: cell-based; conditions: 24 h, no pH given
Experimental: as §1, §2

S. aureus (Newman) = assay: MIC, broth microdilution; format: cell-based; conditions: 24 h, no pH given
Experimental: as §1, §2

E. coli biofilm = assay: Biofilm inhibition assay (crystal violet); format: cell-based; conditions: 512 μg/mL free streptomycin, 24 h
Experimental: (§3) Biofilm inhibition assays. Exponentially growing bacteria were inoculated into 96 well plates (1×10^4 cell/well) containing MHB broth with 2% (v/w) glucose, incubated under stationary conditions at 37° C. for one day. After biofilm formation, the media was discarded and the plates were washed with PBS to remove the planktonic bacteria. Fresh NMB broth containing serially diluted free streptomycin or PDC were added to the plates and incubated at 37° C. for another 24 h. The media in each well was then removed, and the plates were washed carefully with PBS for 1 time. The biofilm in each well was fixed with 95% ethanol for 15 min and stained with 0.1% crystal violet for 15 min. After washing with Milli-Q water for three times, 33% v/v acetic acid (100 μL/well) was added to solubilize the crystal violet staining. OD 560 in each well was read to determine the biofilm formation. The biofilm formed as described above was also stained with acridine orange and Cy5 labeled PDC, and monitored by CLSM to observe the PDC penetration.

P. aeruginosa biofilm = assay: Biofilm inhibition assay (crystal violet); format: cell-based; conditions: 256 μg/mL streptomycin
Experimental: as §3

MRSA biofilm = assay: Biofilm inhibition assay (crystal violet); format: cell-based, S. aureus; conditions: 512 μg/mL free streptomycin, 24 h
Experimental: as §3

E. coli ATCC 25922 [3] = assay: Evaluation of antibiotic resistance development (serial passaging); format: cell-based; conditions: sub-lethal dose (0.5 MIC)
Experimental: Evaluation of antibiotic resistance development. E. coli ATCC 25922 was employed to study the drug resistance development under sublethal dose treatments of free streptomycin, cationic polymer or the PDC. During a serial of passages, the MIC of each treatment was measured by the broth microdilution method as described above, and the bacteria were exposed to ½MIC at that particular passage. MIC for each passage was recorded and normalized to that of the first passage to determine the drug resistance enhancement.

[4] = system: P. aeruginosa in Raw 264.7 macrophage; assay: Antibacterial activity for intracellular infection; format: cell-based; conditions: Raw 264.7 infected with P. aeruginosa, pH 7.4 and 6.0, 1 day
Experimental: Antibacterial activity for intracellular infection. The antibacterial activity for intracellular infection was tested following the previous report. Briefly, macrophage Raw 264.7 cells were seeded in 96-well plate at a density of 1×10^4 cell/swell overnight and infected with MRSA or P. aeruginosa at a ratio of 10-20 bacteria per macrophage in FBS free RPMI 1640 medium. After 3 h incubation, the cells were washed and cultured in 1640 medium containing 10% FBS and 50 μg/mL gentamycin for one day to prevent the growth of extracellular bacteria. Then the macrophages were treated with free streptomycin or PDC for another day and lysed with Milli-Q water supplemented with 0.1% Triton-X. The cell lysates were serially diluted and the CFU in each well was determined by plating on MHB agar plates.

P. aeruginosa ATCC 27853 = assay: Mouse lung infection model; format: in vivo, ICR mice; conditions: 2 i.v. injections (1 h and 8 h after the infection)
Experimental: Mouse lung infection model. […] In another experiment of monitoring the mice survival for the lung infection model, the P. aeruginosa infected mice were given 2 treatments (1 h and 8 h after the infection) and their survival was observed using Kaplan-Meier curves (n=5).

E. coli ATCC 25922 [5] = assay: Live/Dead bacterial staining assay (AO/EB); format: cell-based; conditions: 0.5 h and 3 h
Experimental: Live/Dead bacterial staining assay. Exponentially growing bacteria (E. coli ATCC 25922) were collected by centrifugation at 8000 rpm for 5 min, washed with saline and diluted to OD 600 value of 0.5. The bacterial suspensions were incubated with different treatments at 37° C. for 0.5 h and 3 h, and then washed with saline and stained by acridine orange (10 μg/mL) and ethidium bromide (EB, […]) solution for 15 min. Afterward, the bacteria were collected via centrifugation, washed with saline for 2 times, resuspended in 70% glycerol and spread on glass slides. The live/dead bacteria were observed by a confocal laser scanning microscope (CLSM).

human red blood cells = assay: Hemolysis assay; format: cell-based
Experimental: Hemolysis assay. […] The antibacterial polymer and PDC with different charges were serial diluted with PBS and placed in 96-well plates (100 μL/well). The blood cell suspension (10 μL/well) was added into the wells and incubated at 37° C. for 1 h to allow the complete hemolysis process. […] Following centrifugation at 3000 rpm for 7 min, the supernatant (70 μL/well) was transferred to another clean 96-well plate. OD 560 in each well was monitored by a microplate reader, and hemolysis was calculated using the following formula: […]

[6] = system: HEK 293 human embryonic kidney cells; assay: Cell viability test (MTT cytotoxicity); format: cell-based; conditions: 48 h, no pH given
Experimental: Cell viability test. Cytotoxicity of different components was tested through MTT assays. HEK 293 human embryonic kidney cells were seeded onto a 96-well plate (1×10^4 cells/well) and cultured overnight. The cells were then treated with various polymers or PDCs with serial dilutions for 48 h and their viability was measured by a standard MTT assay. Data were collected by monitoring the difference between the absorbance at 560 nm and 650 nm using a GloMax-Multi Microplate Multimode Reader (Promega, Wis., USA).

[7] = system: broad spectrum of microbes; assay: MIC, broth microdilution, across the strains tested; format: cell-based; conditions: E. coli, MRSA, P. aeruginosa (FIGS. 3G-I)
Experimental: as §1
as §2, with “Broth containing microbial cells alone was used as a positive control and broth without bacteria inoculation was used as a negative control. Each test was carried out in 3 replicates.” left out

[H]/N=C(/N)N[C@H]1[C@H](O)[C@@H](O)[C@H](O[C@@H]2O[C@@H](C)[C@](O)(C=O)[C@H]2O[C@@H]2O[C@@H](CO)[C@H](O)[C@@H](O)[C@@H]2NC)[C@@H](N/C(N)=N\[H])[C@@H]1O [Streptomycin, streptomycin, reference compound]
MIC (E. coli (ATCC 25922); Escherichia coli, ATCC25922): 8 µg/mL (≈ 13.8 µM) | MIC (E. coli (DH5 alpha); Escherichia coli): 8 µg/mL (≈ 13.8 µM) | MIC (M. smegmatis (MC^2 155); Mycolicibacterium smegmatis, MC^2155): 0.5 µg/mL (≈ 0.86 µM) | MIC ([1]; Pseudomonas aeruginosa, ATCC27853): 16 µg/mL (≈ 27.5 µM) | MIC ([2]; Staphylococcus aureus): 16 µg/mL (≈ 27.5 µM) | MIC (S. aureus (Newman); Staphylococcus aureus, NEWMAN): 16 µg/mL (≈ 27.5 µM) | biofilm remaining (E. coli biofilm): more than 50% | biofilm reduced / removed (P. aeruginosa biofilm): 75% | biofilm remaining (MRSA biofilm): more than 50% | increase in MIC after 20 passages (E. coli ATCC 25922 [3]): 10 fold | antibacterial efficacy on intracellular bacteria (CFU), in words [4]: did not show much therapeutic efficacy | mice rescued (survival) (P. aeruginosa ATCC 27853): 40% | bactericidal effect / EB staining, in words (E. coli ATCC 25922 [5]): little EB infiltration at 3 h

Hex-Cys-Cys-DET-DMA [Neutralized polymer]
hemolytic activity, in words (human red blood cells): did not show any hemolytic activity

Hex-Cys-Cys-DET2 polymer [Positively-charged polymer]
hemolytic activity, in words (human red blood cells): only induced hemolysis at a high level of 10 mg/mL

Hex-Cys-Cys-DET-strep [Positively-charged PDC]
MIC E. coli (ATCC 25922) (E. coli (ATCC 25922)): 20 µg/mL | MIC E. coli (DH5 alpha) (E. coli (DH5 alpha)): 20 µg/mL | MIC M. smegmatis (MC^2 155) (M. smegmatis (MC^2 155)): 1.25 µg/mL | MIC P. aeruginosa (ATCC 27853) [1]: 20 µg/mL | MIC S. aureus (MRSA ATCC33591) [2]: 20 µg/mL | MIC S. aureus (Newman) (S. aureus (Newman)): 10 µg/mL | HEK293 IC50 [6]: >2000 µg/mL | effect of pH (6.0 vs 7.4) on MIC, in words [7]: MICs were unaffected by pH variation

— patent publication US11911406B2, “PH-responsive polymer-drug conjugates for enhanced antibacterial efficacy” (priority 2020, dated 2024)
